System: 997726-040-R-J2-PDC tumor spheroids, viability
Experiment: Anticancer human tumor 997726-040-R-J2-PDC patient-derived squamous cell lung carcinoma cell line growth inhibition [PI3K]
Conditions: spheroids with HUVEC and MSC; for IC50: curve of first compound; for viability, T/C: stronger effect = lower value
Excerpt: Combinatorial screen of targeted agents with the PI3K inhibitors inavolisib, alpelisib, duvelisib, and copanlisib in multi-cell type tumor spheroids
A high-throughput screen of multi-cell type tumor spheroids was designed to identify active combinations of targeted small molecules and PI3K pathway inhibitors. Complex spheroids include a stromal component modeled by human endothelial cells (HUVEC) and fibroblasts modeled by human mesenchymal stem cells (MSCs). The concentration ranges selected for each drug and investigational agent were based upon clinically achievable concentrations if the clinical Cmax of the agent was known.
Compounds. The drugs and investigational agents: inavolisib (NSC800729), alpelisib (NSC765974), duvelisib (NSC772469), copanlisib (NSC816437), ipatasertib (NSC767898), afuresertib (NSC778305), talazoparib (NSC767125), sapanisertib (NSC764658), selumetinib (NSC741078), tovorafenib (DAY101, NSC766906), vemurafenib (NSC761431), ravoxertinib (NSC781343), sotorasib (NSC818433), MRTX1133 (NSC 836407), abemaciclib (NSC 768073), palbociclib (NSC758247), venetoclax (NSC 766270), SY5609 (NSC837396), enzalutamide (NSC755605), and darolutamide (NSC825331), were obtained from the National Cancer Institute (NCI) Developmental Therapeutics Program Chemical Repository. The FDA-approved anticancer drug set is available from the NCI Developmental Therapeutics Program. […] The stock solutions were prepared in dimethyl sulfoxide (DMSO, Sigma-Aldrich, St. Louis, MO, cat. D2650) at 800-fold the tested concentration and stored at -70 degrees C prior to their use. All drugs and investigational agents were tested over a range starting from a high concentration at or near the clinical Cmax and decreasing in half-log increments. If the clinical Cmax for an agent had not been determined, the highest concentration tested was 10 microM.
Cell Culture. All cells were maintained in an incubator at 37 degrees C and 5% CO2 with 95% humidity. The PDC lines were cultured according to standard operating procedures established by the NCI PDMR (https://pdmr.cancer.gov/sops/default.htm). All PDCs were thawed and cultured in Matrigel-coated flasks prepared with a working solution of 1X Ham's F-12 nutrient mix, without supplementation (Invitrogen, Waltham, MA, cat. 11765054), 100 U/mL penicillin-streptomycin (Invitrogen, cat. 15140122), and 2.5% Matrigel (Corning Inc., Corning, NY, cat. 354248) for the first three passages. The 354836-022-R-J1-PDC, 475296-252-R-J1-PDC, and 997726-040-R-J2-PDC lines were cultured in 6A media, which includes advanced DMEM/F-12 (Thermo Fisher Scientific, cat. 12634028), 10 mM HEPES (Thermo Fisher Scientific, cat. 15630080), 1X GlutaMAX supplement (Thermo Fisher Scientific, cat. 35050061), 0.1 mg/mL primocin (InvivoGen, San Diego, CA, cat. ant-pm-2), 10% defined fetal bovine serum, heat inactivated (HyClone Laboratories Inc., Logan, UT, cat. SH30070.03HI), 50% L-WRN conditioned media (ATCC, cat. CRL-3276), 1.25 mM N-Acetyl-L-cysteine (Sigma-Aldrich, cat. A9165), 10 mM nicotinamide (Sigma-Aldrich, cat. N0636), 1X B-27 supplement (Thermo Fisher Scientific, cat. 17504044), 1X N-2 supplement (Thermo Fisher Scientific, cat. 17502048), and 10 microM Y-27632 dihydrochloride (Tocris Bioscience, Bristol, United Kingdom, cat. 1254). The 624824-186-R-J2-PDC line was cultured in 6C/Colon 1B media, which includes all 6A media components plus 50 ng/mL human EGF recombinant protein (Thermo Fisher Scientific, cat. PHG0311). […]

[1] = second compound 0.00316 µM, first compound 0.000316 µM
[2] = second compound 0.00316 µM, first compound 0.001 µM
[3] = second compound 0.00316 µM, first compound 0.00316 µM
[4] = second compound 0.00316 µM, first compound 0.01 µM
[5] = second compound 0.00316 µM, first compound 0.0316 µM
[6] = second compound 0.00316 µM, first compound 0.1 µM
[7] = second compound 0.01 µM, first compound 0.000316 µM
[8] = second compound 0.01 µM, first compound 0.001 µM
[9] = second compound 0.01 µM, first compound 0.00316 µM
[10] = second compound 0.01 µM, first compound 0.01 µM
[11] = second compound 0.01 µM, first compound 0.0316 µM
[12] = second compound 0.01 µM, first compound 0.1 µM
[13] = second compound 0.0316 µM, first compound 0.000316 µM
[14] = second compound 0.0316 µM, first compound 0.001 µM
[15] = second compound 0.0316 µM, first compound 0.00316 µM
[16] = second compound 0.0316 µM, first compound 0.01 µM
[17] = second compound 0.0316 µM, first compound 0.0316 µM
[18] = second compound 0.0316 µM, first compound 0.1 µM
[19] = second compound 0.1 µM, first compound 0.000316 µM
[20] = second compound 0.1 µM, first compound 0.001 µM
[21] = second compound 0.1 µM, first compound 0.00316 µM
[22] = second compound 0.1 µM, first compound 0.01 µM
[23] = second compound 0.1 µM, first compound 0.0316 µM
[24] = second compound 0.1 µM, first compound 0.1 µM
[25] = second compound 0.316 µM, first compound 0.000316 µM
[26] = second compound 0.316 µM, first compound 0.001 µM
[27] = second compound 0.316 µM, first compound 0.00316 µM
[28] = second compound 0.316 µM, first compound 0.01 µM
[29] = second compound 0.316 µM, first compound 0.0316 µM
[30] = second compound 0.316 µM, first compound 0.1 µM
[31] = second compound 1 µM, first compound 0.000316 µM
[32] = second compound 1 µM, first compound 0.001 µM
[33] = second compound 1 µM, first compound 0.00316 µM
[34] = second compound 1 µM, first compound 0.01 µM
[35] = second compound 1 µM, first compound 0.0316 µM
[36] = second compound 1 µM, first compound 0.1 µM
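Further: spheroids exposed to compounds for seven days before readout.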

CC(=O)c1c(C)c2cnc(Nc3ccc(N4CCNCC4)cn3)nc2n(C2CCCC2)c1=O + CC(Nc1ccc2c(c1)OCCn1cc(N3C(=O)OCC3C(F)F)nc1-2)C(N)=O
IC50 (second compound 0.00316 µM): > 100 nM | IC50 (second compound 0.01 µM): > 100 nM | IC50 (second compound 0.0316 µM): 44.5 nM | IC50 (second compound 0.1 µM): < 0.316 nM | IC50 (second compound 0.316 µM): < 0.316 nM | IC50 (second compound 1 µM): < 0.316 nM | viability, T/C [1]: 94.9% | viability, T/C [2]: 84.1% | viability, T/C [3]: 83.1% | viability, T/C [4]: 81.9% | viability, T/C [5]: 84.9% | viability, T/C [6]: 55.8% | viability, T/C [7]: 84.7% | viability, T/C [8]: 80.7% | viability, T/C [9]: 74.1% | viability, T/C [10]: 76.4% | viability, T/C [11]: 65.8% | viability, T/C [12]: 53.9% | viability, T/C [13]: 62% | viability, T/C [14]: 62.1% | viability, T/C [15]: 63.9% | viability, T/C [16]: 53.9% | viability, T/C [17]: 52.5% | viability, T/C [18]: 45% | viability, T/C [19]: 43.5% | viability, T/C [20]: 45.4% | viability, T/C [21]: 46.5% | viability, T/C [22]: 48.9% | viability, T/C [23]: 40.5% | viability, T/C [24]: 29.5% | viability, T/C [25]: 38.4% | viability, T/C [26]: 32.7% | viability, T/C [27]: 39.3% | viability, T/C [28]: 30.1% | viability, T/C [29]: 24.4% | viability, T/C [30]: 22.9% | viability, T/C [31]: 26.3% | viability, T/C [32]: 33.2% | viability, T/C [33]: 27.5% | viability, T/C [34]: 28.1% | viability, T/C [35]: 22.2% | viability, T/C [36]: 15.3%

CC1(C)CCC(Nc2ncc(C(F)(F)F)c(-c3c[nH]c4c(P(C)(C)=O)c(C#N)ccc34)n2)CN1 (centres undefined)
viability, T/C (compound 0.0316 µM): 45.6% [middle of 4 runs] | viability, T/C (compound 0.1 µM): 42.6% [middle of 4 runs] | viability, T/C (compound 0.316 µM): 48% [middle of 4 runs] | viability, T/C (compound 1 µM): 44% [middle of 4 runs] | viability, T/C (compound 10 µM): 23.3% [middle of 4 runs]

CC(C)n1nc(-c2ccc3oc(N)nc3c2)c2c(N)ncnc21 + COc1c(OCCCN2CCOCC2)ccc2c3n(c(=NC(=O)c4cnc(N)nc4)nc12)CCN3
IC50 (second compound 0.00316 µM): 18.2 nM | IC50 (second compound 0.01 µM): 2.97 nM | IC50 (second compound 0.0316 µM): < 0.316 nM | IC50 (second compound 0.1 µM): < 0.316 nM | IC50 (second compound 0.316 µM): < 0.316 nM | IC50 (second compound 1 µM): < 0.316 nM | viability, T/C [1]: 74% | viability, T/C [2]: 76.6% | viability, T/C [3]: 70% | viability, T/C [4]: 61.1% | viability, T/C [5]: 39.9% | viability, T/C [6]: 16.4% | viability, T/C [7]: 57.2% | viability, T/C [8]: 57.9% | viability, T/C [9]: 45.5% | viability, T/C [10]: 42.2% | viability, T/C [11]: 33.2% | viability, T/C [12]: 13.1% | viability, T/C [13]: 32.4% | viability, T/C [14]: 35.5% | viability, T/C [15]: 32.5% | viability, T/C [16]: 29.6% | viability, T/C [17]: 23.7% | viability, T/C [18]: 5.54% | viability, T/C [19]: 25.5% | viability, T/C [20]: 22.1% | viability, T/C [21]: 21.3% | viability, T/C [22]: 16.3% | viability, T/C [23]: 9.54% | viability, T/C [24]: 2.12% | viability, T/C [25]: 5.5% | viability, T/C [26]: 4.4% | viability, T/C [27]: 4.05% | viability, T/C [28]: 2.91% | viability, T/C [29]: 1.89% | viability, T/C [30]: 1.02% | viability, T/C [31]: 1.83% | viability, T/C [32]: 1.51% | viability, T/C [33]: 1.18% | viability, T/C [34]: 1.56% | viability, T/C [35]: 1.91% | viability, T/C [36]: 0.84%
